Consider two compounds from patent US11253554B2, “Bacterial profile to detect fungal taxa abundance in the gut” (Virginia Commonwealth University, priority 2016, dated 2022).

For data set [1], the system named is bacterial taxa (stool microbiota). Kind of data set: Cross-sectional study of outpatients with cirrhosis, bacterial Shannon diversity. It counts as in vivo, human. Particulars: outpatients with cirrhosis on rifaximin without SBP prophylaxis; vs SBPP 1.3±0.5. On the procedure:
(§1) Healthy controls that were age-matched were enrolled with two sets of patients with cirrhosis, outpatients and inpatients. Healthy controls were outpatients without any chronic diseases or medications. Patients with cirrhosis were included who were diagnosed using liver biopsy, evidence of frank decompensation or radiological features of cirrhosis who were between 21 and 75 years. Patients who were unable to give consent or provide stool within 48 hours of admission, with alcohol misuse, alcoholic hepatitis, on antifungal medications and with gastrointestinal bleeding episodes within 6 weeks were excluded. Also excluded were those undergoing HCV eradication or those on probiotics within the last 3 months. […]
(§2) Microbial DNA were isolated from stool samples as previously described (Gillevet P, et al. Chem Biodivers 2010 7:1065-75). […] Amplicons for 96 samples were then sequenced together to generate >20,000×400 base reads per sample.
The Microbiome Analysis Center's Portal was used to organize raw data, track clinical metadata, and track analysis between the groups at baseline and/if they develop infections and are resampled. […] The taxonomic identity of reference sequences were determined using the RDP11 Classifier (Wang Q et al. Appl Environ Microbiol 2007 73:5261-7) and QIIME Pipeline. […]

In data set [2] the test system is fungal taxa (stool mycobiome). Kind of data set: Cross-sectional study of outpatients with cirrhosis, fungal Shannon diversity. Particulars: outpatients with cirrhosis on rifaximin without SBP prophylaxis; vs SBPP 0.83±0.60. It counts as in vivo, human. On the procedure:
as §1
Similarly, the ITS1 regions of the fungal 18S ribosomal RNA (rRNA) gene were sequenced on a PGM Ion Torrent Next-generation sequencer using Multitag fusion primers (ITS1F: 5′-[…]-3′ (SEQ ID NO:3); ITS2: 5′-[…]-3′ (SEQ ID NO:4)). Amplicons for 96 samples were sequenced together to generate >10,000×400 base reads per sample. The mycobiome is generally less diverse than the microbiome and thus required fewer reads to interrogate this community (Ghannoum M A, et al. PLoS pathogens 2010 6:e1000713). Greater than 1000 reads for bacteria and greater than 100 reads for fungi were used given the relatively lower abundance of fungal taxa as the lowest number chosen to be acceptable. […]

The test system of data set [3] is bacterial taxa (stool microbiota). Kind of data set: Pre-PPI/post-PPI longitudinal study, stool 16S rRNA bacterial community analysis. It counts as in vivo, human. Particulars: after 14 days of 40 mg omeprazole daily. On the procedure:
(§3) The impact of PPI on fungal parameters were analyzed from a prior trial in which 40 mg of omeprazole was administered daily for 14 days in compensated outpatients with cirrhosis and healthy controls, (Bajaj J S, et al. Am J Physiol Gastrointest Liver Physiol 2014 307:G951-G957).
(§4) For all these studies, Shannon diversity indices for both bacterial and fungal taxa as well as LEFSe comparisons (Segata N, et al. Genome Biol 2011 12:R60) at baseline and the end of study were performed and compared.
as §2
The Microbiome Analysis Center's Portal was used to organize raw data, track clinical metadata, and track analysis between the groups at baseline and/if they develop infections and are resampled. […] The taxonomic identity of reference sequences were determined using the RDP11 Classifier (Wang Q et al. Appl Environ Microbiol 2007 73:5261-7) and QIIME Pipeline. […] Changes in abundance of individual bacterial and fungal taxa were also analyzed using traditional univariate statistical methods. […]

The conditions of data set [4]: all subjects, 40 mg daily for 14 days, as reported in prior trial; cited from earlier work.
Data set [5] is described as follows: Pre-PPI/post-PPI longitudinal study, clinical course. The following applies: patients with cirrhosis; before 8.1±2.7, p=0.41. It counts as in vivo, human. On the procedure: The impact of PPI on fungal parameters were analyzed from a prior trial in which 40 mg of omeprazole was administered daily for 14 days in compensated outpatients with cirrhosis and healthy controls, (Bajaj J S, et al. Am J Physiol Gastrointest Liver Physiol 2014 307:[…]-[…]).

For data set [6], the system named is fungal taxa (stool mycobiome). Kind of data set: Pre-PPI/post-PPI longitudinal study, stool ITS1 fungal community analysis. The following applies: after 14 days of 40 mg omeprazole daily. It counts as in vivo, human. On the procedure:
as §3, §4
Similarly, the ITS1 regions of the fungal 18S ribosomal RNA (rRNA) gene were sequenced on a PGM Ion Torrent Next-generation sequencer using Multitag fusion primers (ITS1F: 5′-[…]-3′ (SEQ ID NO:3); ITS2: 5′-[…]-3′ (SEQ ID NO:4)). Amplicons for 96 samples were sequenced together to generate >10,000×400 base reads per sample. The mycobiome is generally less diverse than the microbiome and thus required fewer reads to interrogate this community (Ghannoum M A, et al. PLoS pathogens 2010 6:e1000713). Greater than 1000 reads for bacteria and greater than 100 reads for fungi were used given the relatively lower abundance of fungal taxa as the lowest number chosen to be acceptable. […] A cutoff of 100 reads per sample was used as that was clearly above the negative control and is the break point in FIG. 6. […]

The structures appear in SMILES notation.

On to `CO[C@H]1/C=C/O[C@@]2(C)Oc3c(C)c(O)c4c(O)c(c5c(nc6cc(C)ccn65)c4c3C2=O)NC(=O)/C(C)=C\C=C\[C@H](C)[C@H](O)[C@@H](C)[C@@H](O)[C@@H](C)[C@H](OC(C)=O)[C@@H]1C` [rifaximin], for which the “bacterial diversity (Shannon index)” value in data set [1] came to 1.32±0.51. In data set [2], the “fungal diversity (Shannon index)” value amounted to 0.77±0.77.

As to `COc1ccc2[nH]c([S+]([O-])Cc3ncc(C)c(OC)c3C)nc2c1` (centres unmarked) [omeprazole], the “bacterial diversity (Shannon index) post” value was 1.63±0.22 in data set [3] (healthy controls, pre 1.88±0.16, p=0.004) and 1.54±0.34 in data set [3] (patients with cirrhosis, pre 1.89±0.25, p=0.05). The tolerability result in data set [4] is “able to tolerate”. The “MELD score after therapy” value in data set [5] worked out at 7.9±3.5. In addition, the “fungal diversity (Shannon index) post” value in data set [6] (healthy controls, pre 1.92±0.48, p=0.46) was 1.73±0.61; in data set [6] (patients with cirrhosis, pre 1.64±0.34, p=0.39), 1.45±0.38.
